For 41 compounds, IC50 results are on record in patent US20260125359A1, “HETEROARYL COMPOUNDS AS MULTI-TARGET PROTEIN KINASE INHIBITORS” (FUJIAN HAIXI PHARMACEUTICALS CO., LTD., priority 2023, published 2026).

Molecules are shown by their SMILES. pIC50: −log10 of the molar value.

For the assay, the system named is M-NFS-60 cells. Briefly: M-NFS-60 cell in vitro assay (CCK, 48 h, M-CSF factor medium). The settings on record: M-NFS-60 cells; read-out: M-NFS-60cellassay IC50. Format: cell-based. The procedure: To determine the inhibitory activity of compounds on M-NFS-60 cells.
• M-NFS-60 cell line (ATCC, Cat. No.: CRL-1838) • RPMI-1640 medium (Gibco, domestic subpackage, Cat. No.: C11875500BT) • Recombinant Mouse CSF1/M-CSF (Sino Biological Inc., Cat. No.: 51112-MNAH) • PAN/Serum (BioTECH, Cat. No.: P30-2602) • Trypsin/0.05% Trypsin-EDTA (Gibco, Cat. No.: 25300-062) • 0.4% Trypan Blue (Sigma, Cat. No.: T8154-20 ml) • Penicillin-Streptomycin (Hyclone, Cat. No.: SV30010) • DMSO (Solarbio, Cat. No.: D8371) • PBS (Solarbio, Cat. No.: P1020) • CCK (AbMole BioScience, Cat. No.: M4839-500Tests)
• 1) M-CSF factor stock solution: take 10 μg of powdered m-CSF factor, add 0.4 ml of saline, formulate 25 ug/ml and store at −80° C. • 2) M-CSF factor (25 ng/ml) medium: • 1640 (Gibco)+10% PAN+100×Penicillin-Streptomycin+100×M-CSF stock solution • 3) Complete medium: • 1640 (Gibco)+10% PAN+100×Penicillin-Streptomycin • 4) Compound preparation: 2-3 mg of the compound was added to DMSO to formulate a 30 mM stock solution, −80° C. refrigerator storage
• 1) Cell resuscitation: the frozen cells in the cryovial were thawed rapidly by shaking in a 37° C. water bath, then 4 mL of medium was added. After mixing evenly, they were centrifuged at 125×g for 5 min, and the supernatant was discarded. The cells were resuspended and transferred to the culture flasks, and were cultured in a 5% CO2 fully saturated humidity incubator. • 2) Cell passaging: M-NFS-60 cells are semi-suspension cells, which were collected directly in a 15 mL centrifuge tube, centrifuged at 125×g for 5 min. and the supernatant was discarded. The cells were resuspended and passaged into new culture flasks at a ratio of 1:5 to 1:10. • 3) After the newly resuscitated cells were passaged 1-2 times for cell stabilization, compound inhibition assays were started when the cells were in the logarithmic growth phase. • (a) Cell collection and counting: the same as the cell passaging step, centrifuge in two tubes, one tube with M-CSF factor medium to resuspend the cells, the other tube with complete medium to resuspend the cells. Take 10 μL of cell suspension in each tube, and count the cells by Tepan blue staining. • (b) Dilute the cell solution according to the concentration of inoculated cells respectively, the concentration of M-NFS-60 cells inoculated with factor was 5.56×10^4 cells/mL, and the concentration of inoculated without factor was 5×10^4 cells/mL. • (c) Seed plate: 384 well plate inoculated with M-NFS-60 cells, 36 uL/well, triplicate wells, the number of inoculated cells was equivalent to 2000 cells/well, set with blank control, factor free negative control, normal control, DMSO control and experimental wells. The cells were placed in a 5% CO2 fully saturated humidity incubator for 4 h. • (d) Sampling compounds: 96 well plates were used for compound preparation. The compound solution prepared in advance was diluted to corresponding gradient concentration with DMSO. An appropriate amount of the diluted solution in the previous step was added to an equal volume of factor containing medium. The 96 well plates were centrifuged at 1000 rpm for 5 min, which played the role of defoaming and spinning down droplets and condensation. Remove the 384 well plate from the incubator, add the diluted compound solution into each well sequentially, 4 μL/well; DMSO wells and normal wells were added with corresponding factor containing medium, 4 μL/well. Then it was put into CO2 incubator for 48 h. • (e) After incubation for 48 h, CCK was added to each well, 4 uL, and the plates were placed in the incubator for another 2 h, and then the OD (optical density) value at 450 nm was measured by microplate reader.
The IC50 values for each test compound were fitted using professional graphing and analysis software.
For orientation: pIC50 means −log10 of the IC50, conventionally taken in molar units. For `Cn1cc(-c2cncc(N[C@H]3CCc4c(C(=O)Nc5ccc(Cl)cc5)cccc43)c2)cn1` [Compound 14an], the negative-log IC50 (pIC50) was over 7.30.
Next, `Cn1cc(-c2cncc(N[C@H]3CCc4c(C(=O)Nc5ccc(Cl)c(F)c5)cccc43)c2)cn1` [Compound 14ao]: over 7.30; `CN1CCN(c2ccc(NC(=O)c3cccc4c3CC[C@@H]4Nc3cncc(-c4cnn(C)c4)c3)cc2)CC1` [Compound 14aq]: 6.30 to 6.70.
Next, `CN1CCN(Cc2cccc(NC(=O)c3cccc4c3CC[C@@H]4Nc3cncc(-c4cnn(C)c4)c3)c2)CC1` [Compound 14ar]: 6.30 to 6.70.
Consider `Cn1cc(-c2cncc(N[C@H]3CCc4c(C(=O)Nc5cccc(CN6CCCCC6)c5)cccc43)c2)cn1` [Compound 14at], for which the pIC50 was 6.70 to 7.30.
With `CN(C)Cc1ccc(NC(=O)c2cccc3c2CC[C@@H]3Nc2cncc(-c3cnn(C)c3)c2)cc1` [Compound 14au], the pIC50 is 6.70 to 7.30.
As for `Cn1cc(-c2cncc(N[C@H]3CCc4c(C(=O)Nc5cccc(CN6CCCC6)c5)cccc43)c2)cn1` [Compound 14av], the pIC50 was 6.70 to 7.30.
Next, `Cn1cc(-c2cncc(N[C@H]3CCc4c(C(=O)Nc5cccc(C6CC6)c5)cccc43)c2)cn1` [Compound 14aw]: over 7.30.
Consider `Cn1cc(-c2cncc(N[C@H]3CCc4c(C(=O)Nc5cccc(C(F)(F)F)c5)cccc43)c2)cn1` [Compound 14ax], for which the pIC50 is over 7.30.
As for `CN1CCc2cc(NC(=O)c3cccc4c3CC[C@@H]4Nc3cncc(-c4cnn(C)c4)c3)ccc2C1` [Compound 14ay], the pIC50 was 6.70 to 7.30.
For the compound `CN(C)Cc1cccc(NC(=O)c2cccc3c2CC[C@@H]3Nc2cncc(-c3cnn(C)c3)c2)c1` [Compound 14az], the pIC50 was 6.70 to 7.30.
Next, `Cc1cccc(C(=O)Nc2cccc3c2CC[C@H]3Oc2cncc(-c3cnn(C)c3)c2)c1` [Compound 16, (R)-3-methyl-N-(1-((5-(1-methyl-1H-pyrazol-4-yl)pyridin-3-yl)oxy)-2,3-dihydro-1H-inden-4-yl)benzamide]: under 6.30.
For `Cn1cc(-c2cncc(O[C@H]3CCc4c(C(=O)Nc5ccc(C(F)(F)F)cc5)cccc43)c2)cn1` [Compound 17, (S)-1-((5-(1-methyl-1H-pyrazol-4-yl)pyridin-3-yl)oxy)-N-(4-(trifluoromethyl)phenyl)-2,3-dihydro-1H-indene-4-carboxamide], the pIC50 is over 7.30.
In the case of `CN1CCc2ccc(NC(=O)c3cccc4c3CC[C@@H]4Oc3cncc(-c4cnn(C)c4)c3)cc2C1` [Compound 18, (S)—N-(2-methyl-1,2,3,4-tetrahydroisoquinolin-7-yl)-1-((5-(1-methyl-1H-pyrazol-4-yl)pyridin-3-yl)oxy)-2,3-dihydro-1H-indene-4-carboxamide], the pIC50 is 6.70 to 7.30.
For `CN(C)Cc1ccc(NC(=O)c2cccc3c2CC[C@@H]3Oc2cncc(-c3cnn(C)c3)c2)cc1` [Compound 19c] the value was 6.70 to 7.30; for `CN(C)Cc1cccc(NC(=O)c2cccc3c2CC[C@@H]3Oc2cncc(-c3cnn(C)c3)c2)c1` [Compound 19e], 6.70 to 7.30.
As for `CN1CCc2c(cccc2NC(=O)c2cccc3c2CC[C@@H]3Oc2cncc(-c3cnn(C)c3)c2)C1` [Compound 19g], the pIC50 is under 6.30.
Next, `CN1CCc2cc(NC(=O)c3cccc4c3CC[C@@H]4Oc3cncc(-c4cnn(C)c4)c3)ccc2C1` [Compound 19i]: 6.70 to 7.30.
Next, `CNCc1cccc(NC(=O)c2cccc3c2CC[C@@H]3Oc2cncc(-c3cnn(C)c3)c2)c1` [Compound 19l]: under 6.30; `Cn1cc(-c2cncc(O[C@H]3CCc4c(C(=O)Nc5cccc(C(C)(C)N)c5)cccc43)c2)cn1` [Compound 19m]: 6.30 to 6.70.
Take `Cn1cc(-c2cncc(O[C@H]3CCc4c(C(=O)Nc5ccc6c(c5)OCCO6)cccc43)c2)cn1` [Compound 19n]: the pIC50 was over 7.30.
Consider `CN1CC(c2cccc(NC(=O)c3cccc4c3CC[C@@H]4Oc3cncc(-c4cnn(C)c4)c3)c2)C1` [Compound 19o], for which the negative-log IC50 (pIC50) was 6.70 to 7.30.
Turning to `Cc1cc(NC(=O)c2cccc3c2CC[C@@H]3Oc2cncc(-c3cnn(C)c3)c2)ccn1` [Compound 19p], the negative-log IC50 (pIC50) was over 7.30.
Next, `CN(C)Cc1cc(NC(=O)c2cccc3c2CC[C@@H]3Oc2cncc(-c3cnn(C)c3)c2)ccc1C(F)(F)F` [Compound 19q]: over 7.30; `CN(C)CCOc1cccc(NC(=O)c2cccc3c2CC[C@@H]3Oc2cncc(-c3cnn(C)c3)c2)c1` [Compound 19r]: 6.70 to 7.30; `Cn1cc(-c2cncc(O[C@H]3CCc4c(C(=O)Nc5cccc(CN6CCC6)c5)cccc43)c2)cn1` [Compound 19s]: 6.30 to 6.70.
Next, `Cn1cc(-c2cncc(O[C@H]3CCc4c(C(=O)Nc5cncc(F)c5)cccc43)c2)cn1` [Compound 19t]: 6.70 to 7.30; `Cn1cc(-c2cncc(O[C@H]3CCc4c(C(=O)Nc5ccc6c(c5)CNC6)cccc43)c2)cn1` [Compound 19u]: under 6.30; `CN1Cc2ccc(NC(=O)c3cccc4c3CC[C@@H]4Oc3cncc(-c4cnn(C)c4)c3)cc2C1` [Compound 19v]: 6.30 to 6.70.
For `Cc1ncc(-c2cnn(C)c2)cc1O[C@H]1CCc2c(C(=O)Nc3ccc(C(F)(F)F)cc3)cccc21` [Compound 19w] the value was 6.30 to 6.70; for `CN(c1cncc(-c2cnn(C)c2)c1)[C@H]1CCc2c(C(=O)Nc3ccc(C(F)(F)F)cc3)cccc21` [Compound 20, (S)-1-(methyl (5-(1-methyl-1H-pyrazol-4-yl)pyridin-3-yl)amino)-N-(4-(trifluoromethyl)phenyl)-2,3-dihydro-1H-indene-4-carboxamide], over 7.30.
In the case of `CN(c1cncc(-c2cnn(C)c2)c1)[C@H]1CCc2c(C(=O)Nc3cccc(C(F)(F)F)c3)cccc21` [Compound 22b], the negative logarithm of the IC50 (pIC50) is over 7.30.
As for `CN1CCc2ccc(NC(=O)c3cccc4c3CC[C@@H]4N(C)c3cncc(-c4cnn(C)c4)c3)cc2C1` [Compound 22c], the pIC50 is 6.70 to 7.30.
Turning to `CN(C)Cc1cccc(NC(=O)c2cccc3c2CC[C@@H]3N(C)c2cncc(-c3cnn(C)c3)c2)c1` [Compound 22d], the pIC50 was 6.70 to 7.30.
For `CN1CCc2cc(NC(=O)c3cccc4c3CC[C@@H]4N(C)c3cncc(-c4cnn(C)c4)c3)ccc2C1` [Compound 22e] the value was 6.30 to 6.70.
Next, `CN(C)Cc1ccc(NC(=O)c2cccc3c2CC[C@@H]3N(C)c2cncc(-c3cnn(C)c3)c2)cc1` [Compound 22f]: under 6.30; `CN(c1cncc(-c2cnn(C)c2)c1)[C@H]1CCc2c(C(=O)Nc3nn(C)c4ccccc34)cccc21` [Compound 22g]: over 7.30; `CN(c1cncc(-c2cnn(C)c2)c1)[C@H]1CCc2c(NC(=O)c3ccc(C(F)(F)F)cc3)cccc21` [Compound 23, (S)—N-(1-(methyl (5-(1-methyl-1H-pyrazol-4-yl)pyridin-3-yl)amino)-2,3-dihydro-1H-inden-4-yl)-4-(trifluoromethyl)benzamide]: under 6.30.
Next, `Cn1cc(-c2cncc(N[C@H]3CCc4c(NC(=O)c5ccc6c(c5)OC(F)(F)O6)cccc43)n2)cn1` [Compound 24, (S)-2,2-difluoro-N-(1-((6-(1-methyl-1H-pyrazol-4-yl)pyrazin-2-yl)amino)-2,3-dihydro-1H-inden-4-yl)benzo[d][1,3]dioxole-5-carboxamide]: over 7.30; `Cc1cccc(C(=O)Nc2cccc3c2CC[C@@H]3Nc2cncc(-c3cnn(C)c3)n2)c1` [Compound 25a]: over 7.30; `Cc1cccc(C(=O)Nc2cccc3c2CC[C@H]3Nc2cncc(-c3cnn(C)c3)n2)c1` [Compound 25b]: under 6.30.
